According to US20230364205A1, “COMPOSITIONS AND METHODS FOR TREATING SERRATED COLORECTAL CANCER” (SANFORD BURNHAM PREBYS MEDICAL DISCOVERY INSTITUTE, priority 2020, published 2023):
Entries after “also recorded” stand apart in the source; their conditions may differ.

What was measured:
ZKO organoids = assay: interferon response of ZKO (PKCζ-lacking) small intestine organoids to 5-AZA-CdR; type: cell-based, mouse
Description: (§1) For generation of small intestine organoids, organoids were collected in ice-cold TrypLE solution (e.g., Life Technologies) to remove Matrigel, then pipetted 5 cycles and incubated 5 min at 37° C. to obtain single-cell suspension. Cells were washed twice in PBS 3% FBS and resuspended at room temperature with PBS with 100 μg/ml DNase I for 10 min before staining with anti-H-2Kb (clone AF6-88.5.5.3; eBioscience). For antigen presentation in MODE-K cells, cells were washed in PBS, trypsinized and wash with warm medium. Then, cells were resuspended and stained with anti-H-2Kk (clone 36-7-5; BioLegend) and anti-H-2Dk (clone 15-5-5; BD Pharmingen). Dead cells were excluded after 7-AAD staining. All flow cytometry experiments were performed on a BD LSRFortessa 14-colors analyzer at the Sanford Burnham Prebys Medical Discovery Institute Shared FACS Facility and flow cytometry data were analyzed using FlowJo software (Tree Star Inc.).
(§2) Intestinal epithelial cell […] isolation was performed as described previously Llado et al., Repression of Intestinal Stem Cell Function and Tumorigenesis through Direct Phosphorylation of β-catenin and Yap by PKCζ. Cell Reports (2015) 10,740-754, with some modification. […] Adenoma fragments were counted after isolation and a total of 250-500 fragments were mixed with 100 μl of growth factor reduced-Matrigel and plated in 12- or 24-well plates. […]

WT organoids = assay: interferon response of WT small intestine organoids to 5-AZA-CdR; type: cell-based, mouse
Description: as §1, §2

DKO^IEC mouse tumors = assay: TGF-βR1-specific inhibition experiment (galunisertib) in DKO^IEC mice; type: in vivo
Description: For CD8+ T cell depletion (FIG. 4, Panels A-L), 10-week-old LKO^IEC mice were injected intraperitoneally with 200 μg of anti-CD8 antibody (clone 2.43) or control IgG twice a week for 5 weeks until they were sacrificed. For the TGF-βR1-specific inhibition experiment, 10-week-old DKO^IEC mice were treated twice a day with a dose of 10 mg of galunisertib (Tauriello et al., 2018) per os for 6 weeks until they were sacrificed. Control mice were treated with vehicle. For checkpoint immunotherapy, either 10-week-old or 13-week-old DKO^IEC mice were injected intraperitoneally with a dose of 10 mg/kg (body mass) of anti-PD-L1 antibody (clone 6E11) twice a week for 3 weeks until they were sacrificed. For the combination therapy of anti-PD-L1 antibody and TGF-βR1-specific inhibitor, 23-week-old DKO^IEC mice were treated twice a day with a dose of 10 mg of galunisertib per os and injected intraperitoneally with a dose of 10 mg/kg (body mass) of anti-PD-L1 antibody twice a week for 3 weeks until they were sacrificed. Anti-PD-L1 antibody was provided by de Sauvage FJ (Genentech).
Organs were isolated, rinsed in ice-cold PBS, fixed in 10% neutral buffered formalin overnight at 4° C., dehydrated, and embedded in paraffin. Sections (5 μm) were stained with hematoxylin and eosin (H&E). For immunohistochemistry, sections were deparaffinized, rehydrated, and then treated for antigen retrieval. After blocking in Protein Block Serum-Free solutions (DAKO), tissues were incubated with primary antibody overnight at 4° C. followed by incubation with biotinylated secondary antibody. Endogenous peroxidase was quenched in 3% H2O2 in water for 10 min at room temperature. Antibodies were visualized with avidin/biotin complex (e.g., Vectastain Elite; Vector Laboratories) using diaminobenzidine as the chromogen. For immunofluorescence, fresh frozen organs were embedded in Tissue-Tek OCT compound (e.g., Sakura) and section of 10 μm were fixed in methanol, washed with PBS and then incubated with the primary antibodies. Washed sections were incubated with Alexa-conjugated secondary antibodies (e.g., Life Technologies) and examined with a Zeiss LSM 710 NLO Confocal Microscope. In situ hybridization for murine Ereg was carried out using RNAscope Multiplex Fluorescent Assay kit (Advanced Cell Diagnostics) following manufacturer's instructions. The probe corresponding to CDS region of murine Ereg (Accession #: NM_007950.2, probe region: 116-1496; Advanced Cell Diagnostics; Cat #: 437981). Cell death was analyzed using the In-Situ Cell Death Detection kit, TMR red (Thermo) for TUNEL. Masson's Trichrome staining was carried out following manufacturer's instructions (Sigma HT15-1KT).
Flow cytometry experiments were performed using fresh small intestinal tissue and organoid preparations. For the analyses of small intestinal tissue, a half part of duodenum, jejunum, and ileum was used for quantitative flow cytometry analysis of immune cell population of lamina propria. Briefly, small intestines were rinsed in cold PBS, minced into small pieces, incubated in HBSS with EDTA (5 mM) and digested with collagenase (0.05 mg/ml) for 30 min at 37° C., followed by a discontinuous Percoll separation method (40 and 75%) to purify immune cells. The cells concentrated at the interface were collected and washed in cold PBS. Red blood cells were removed with lysing buffer (BD Pharm Lyse) and live cells were counted using Trypan blue and then saturated with mouse Fc Block (purified anti-mouse CD16/CD32; 1:50; clone 2.4G2; BD Pharmingen) 30 min at 4° C. before incubating with specific dyed antibodies.
For IL-17A intracellular staining, cells were pretreated with 50 ng/ml of phorbolmyristate acetate and 500 ng/ml of ionomycin in the presence of 10 μg/ml of brefeldin A for 3 hr at 37° C. 5% CO2. […]

[1] = system: serrated aPKC-DKO^IEC tumors; assay: PVHA treatment of aPKC-DKO^IEC mice; type: in vivo, mouse
Description: Mice treatment with PVHA: For the hyaluronidase-specific inhibition experiment, 11-week-old aPKC-DKO^IEC mice were injected intravenously twice per week with a low dose of 0.0375 mg or high dose of 0.2 mg/Kg of PVHA (Halozyme) for 3 weeks until they were sacrificed. Control mice were treated with vehicle.
Histology, immunohistochemistry: Organs were isolated, rinsed in ice-cold PBS, fixed in 10% neutral buffered formalin overnight at 4° C., dehydrated, and embedded in paraffin. For Masson TriChrome staining, the sections (5 μm) were deparaffinized, rehydrated, and then stained with the Trichrome Stain (Masson) Kit (Sigma-Aldrich, #HT15) following the manufacturer's instructions. For hyaluronan staining, sections (5 μm) were deparaffinized, rehydrated, and then incubated with biotinylated hyaluronan binding protein (Millipore Sigma, #385911) overnight at 4° C., followed by incubation with streptavidin HRP conjugate (Invitrogen, #434323). Staining was developed using diaminobenzidine. For CD8 staining, sections (5 μm) were deparaffinized, rehydrated, and then treated for antigen retrieval (Citrate, pH6) with heat. After blocking in Protein Block Serum-Free solutions (DAKO), tissues were incubated with primary antibody (anti-mouse CD8 (BD, #557654) overnight at 4° C. followed by incubation with biotinylated secondary antibody. Endogenous peroxidase was quenched in 3% H2O2 in water for 10 min at room temperature. Antibodies were visualized with avidin/biotin complex (Vectastain Elite; Vector Laboratories) using diaminobenzidine as the chromogen.

[2] = 3 μM for 24 hours, then drug-free culture, qRT-PCR
[3] = 10-week-old DKO^IEC mice, 10 mg per os twice a day for 6 weeks
[4] = aPKC-DKO^IEC mice, i.v. twice per week for 3 weeks from week 11

With `Nc1ncn([C@H]2C[C@H](O)[C@@H](CO)O2)c(=O)n1` [5-AZA-CdR, 5-aza-2-deoxycytidine] the “expression of interferon-responsive genes Irf7, Oas1a, Isg15, and Cxcl10” value (ZKO organoids; [2]) was “severely abrogated”, the “MHC class I long-chain H-2K^b on the surface” value (ZKO organoids; flow cytometry) was “but not on ZKO organoids” and the “expression of interferon-responsive genes Irf7, Oas1a, Isg15, and Cxcl10” value (WT organoids; [2]) was “robustly induced”. The “MHC class I long-chain H-2K^b on the surface” value (WT organoids; flow cytometry) was “upregulated”.

For `Cc1cccc(-c2nn3c(c2-c2ccnc4ccc(C(N)=O)cc24)CCC3)n1` [galunisertib], the “incidence of invasive cancer” value (DKO^IEC mouse tumors; [3]) was “reduced”, the “progression of SSA/P to the adenocarcinoma stage” value (DKO^IEC mouse tumors; [3]) was “suppressed” and the tumor load (DKO^IEC mouse tumors; [3]) was “did not reduce”. For the same compound, the tumor number (DKO^IEC mouse tumors; [3]) was “did not reduce”, the tumor size (DKO^IEC mouse tumors; [3]) was “did not reduce” and the “proportion of PD-L1+/CD45+ cells infiltrating DKO^IEC tumors” value (DKO^IEC mouse tumors; CD45/PD-L1 staining) was “not affected”. For the same compound, the collagen deposition (DKO^IEC mouse tumors; Masson's trichrome staining of small intestinal tumors, DKO^IEC mice) was “inhibition”, the “proportion of CD8+ T cells” value (DKO^IEC mouse tumors; flow cytometry, DKO^IEC tumors) was “did not significantly change” and the “proportion of CD11b+ myeloid cells” value (DKO^IEC mouse tumors; flow cytometry, DKO^IEC tumors) was “did not significantly change”. The “proportion of Th17 cells in the tumors” value (DKO^IEC mouse tumors; flow cytometry, DKO^IEC tumors) was “reduction”, the “proportion of Treg cells” value (DKO^IEC mouse tumors; flow cytometry, DKO^IEC tumors) was “did not significantly change” and the “expression of TGF-β-responsive genes, such as Angptl2, Cdkn2b, Il11, and Ereg” value (DKO^IEC mouse tumors; qRT-PCR mRNA levels, DKO^IEC mice) was “reduced expression”. For the same compound, the “stromal phospho-SMAD2” value (DKO^IEC mouse tumors; staining of small intestinal tumors, DKO^IEC mice) was “inhibition”.

In the case of Pegvorhyaluronidase alfa [PVHA], the “progression of SSA/Ps to the adenocarcinoma stage” value ([1]; 11-week-old aPKC-DKO^IEC mice, i.v. twice per week for 3 weeks, low and high dose) is reported as “suppressed”, the “number of CD8+ T cells stained in the tumor tissue (infiltration of CD8+ T cells)” value ([1]; CD8 staining of small intestinal tumors, compared to vehicle-treated samples) is reported as “substantially increased; also recorded: increases” and the “collagen deposition in the tumors” value ([1]; Masson trichrome staining of small intestinal tumors) is reported as “reduced”. For the same compound, the tumor load [1, 4] was “reduced”, the tumor number [1, 4] was “reduced” and the tumor size [1, 4] was “reduced”. The “serrated tumors in aPKC-DKO^IEC mice” value ([1]; figure legends FIG. 17 and FIG. 18) was “reduces”, the “incidence of invasive cancer” value ([1]; high dose of 0.2 mg/Kg, i.v. twice per week for 3 weeks from week 11) was “reduced” and the tumor burden ([1]; high dose of PVHA) was “reduce tumor burden substantially”. For the same compound, the “hyaluronan deposition in the tumors” value ([1]; hyaluronan staining of small intestinal tumors, low dose of PVHA (0.0375 mg/kg)) was “reduced”, the “incidence of invasive cancer” value ([1]; low dose of 0.0375 mg, i.v. twice per week for 3 weeks from week 11) was “reduced” and the tumor burden ([1]; low dose of PVHA) was “reduce tumor burden substantially”.
